Measured values from ChEMBL document CHEMBL1201862, “PubChem BioAssay data set” (2004).
Activity calls are given as the source filed them.

Experiments:
Protein skinhead-1 = biological target: T1, Protein skinhead-1 (Caenorhabditis elegans, UniProt P34707); format: functional
T1 sequence (P34707 whole entry): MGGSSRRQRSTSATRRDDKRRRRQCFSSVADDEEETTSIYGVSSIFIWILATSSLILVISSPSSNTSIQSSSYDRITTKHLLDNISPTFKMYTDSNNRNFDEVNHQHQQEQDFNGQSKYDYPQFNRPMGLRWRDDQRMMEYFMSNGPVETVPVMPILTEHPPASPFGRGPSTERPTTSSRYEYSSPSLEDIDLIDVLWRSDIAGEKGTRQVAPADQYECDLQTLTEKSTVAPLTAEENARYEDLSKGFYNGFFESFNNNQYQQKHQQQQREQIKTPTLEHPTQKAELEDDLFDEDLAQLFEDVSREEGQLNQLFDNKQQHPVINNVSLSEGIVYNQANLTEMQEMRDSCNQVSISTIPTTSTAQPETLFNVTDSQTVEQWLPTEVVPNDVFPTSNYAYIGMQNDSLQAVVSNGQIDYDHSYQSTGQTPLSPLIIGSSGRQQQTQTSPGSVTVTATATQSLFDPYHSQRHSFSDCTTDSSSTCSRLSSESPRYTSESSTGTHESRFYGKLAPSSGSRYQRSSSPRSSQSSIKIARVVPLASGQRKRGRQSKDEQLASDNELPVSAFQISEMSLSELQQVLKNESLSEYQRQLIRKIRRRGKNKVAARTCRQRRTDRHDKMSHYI

Cytochrome P450 3A4 = Cytochrome P450 3A4 (Homo sapiens, UniProt P08684);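 further: CYP3A4 tested as one member of a cytochrome P450 panel screen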
[1] = biological target: T2, Microphthalmia-associated transcription factor (Homo sapiens, UniProt O75030); assay: reducers of TRPM1 reporter luminescence, concentration series – cell-based, SK-MEL-5, cherry-picked, set 3, MITF inhibitor project, dose response (AID 493073); format: functional;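 further: SK-MEL-5 melanoma cells with luciferase driven by the MITF target TRPM1 promoter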
T2 sequence (O75030 whole entry): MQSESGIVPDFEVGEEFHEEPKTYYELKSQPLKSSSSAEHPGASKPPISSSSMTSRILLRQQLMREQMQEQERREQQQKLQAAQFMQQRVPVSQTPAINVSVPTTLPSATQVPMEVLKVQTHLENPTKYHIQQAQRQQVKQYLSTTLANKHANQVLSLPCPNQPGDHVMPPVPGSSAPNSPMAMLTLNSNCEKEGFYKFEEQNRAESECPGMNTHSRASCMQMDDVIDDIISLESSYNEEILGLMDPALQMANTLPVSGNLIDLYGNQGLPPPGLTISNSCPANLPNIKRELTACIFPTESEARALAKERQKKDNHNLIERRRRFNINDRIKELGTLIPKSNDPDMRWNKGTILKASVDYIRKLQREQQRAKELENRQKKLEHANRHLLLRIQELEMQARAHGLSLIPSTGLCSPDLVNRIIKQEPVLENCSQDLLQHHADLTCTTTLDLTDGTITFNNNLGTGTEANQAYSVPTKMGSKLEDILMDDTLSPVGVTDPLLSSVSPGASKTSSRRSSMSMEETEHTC

[2] = biological target: T3, Corticotropin-releasing factor receptor 2/Corticotropin-releasing factor-binding protein (Homo sapiens, UniProt P24387+Q13324); assay: Dose Response confirmation of uHTS hits for small molecule antagonists of the CRF-binding protein and CRF-R2 receptor complex.; format: functional; settings: read-out: IC50_Mean
T3 sequence (Q13324 whole entry): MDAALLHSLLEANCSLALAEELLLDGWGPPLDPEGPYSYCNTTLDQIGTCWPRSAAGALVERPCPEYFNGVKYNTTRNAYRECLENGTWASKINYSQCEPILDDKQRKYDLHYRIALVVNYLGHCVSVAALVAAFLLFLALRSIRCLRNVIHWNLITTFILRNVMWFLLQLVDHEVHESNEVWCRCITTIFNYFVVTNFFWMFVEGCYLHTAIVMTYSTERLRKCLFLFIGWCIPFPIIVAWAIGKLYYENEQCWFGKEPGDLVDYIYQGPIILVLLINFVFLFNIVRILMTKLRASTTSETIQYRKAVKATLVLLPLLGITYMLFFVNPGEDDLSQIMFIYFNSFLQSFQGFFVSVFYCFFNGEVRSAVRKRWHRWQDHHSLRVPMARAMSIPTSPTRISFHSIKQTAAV
T3 sequence (P24387 whole entry): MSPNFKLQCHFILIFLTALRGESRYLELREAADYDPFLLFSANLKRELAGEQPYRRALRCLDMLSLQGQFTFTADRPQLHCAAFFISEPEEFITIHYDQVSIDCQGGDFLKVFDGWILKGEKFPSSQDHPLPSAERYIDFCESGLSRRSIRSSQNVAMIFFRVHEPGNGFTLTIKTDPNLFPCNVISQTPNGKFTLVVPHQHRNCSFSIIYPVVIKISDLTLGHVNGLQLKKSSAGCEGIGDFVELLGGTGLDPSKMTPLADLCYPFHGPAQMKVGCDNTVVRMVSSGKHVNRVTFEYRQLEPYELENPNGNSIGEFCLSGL

[3] = biological target: T3, Corticotropin-releasing factor receptor 2/Corticotropin-releasing factor-binding protein; assay: activators of CRF receptor 2 with binding protein – uHTS hits, confirmation (AID 602473); format: functional; settings: read-out: EC50_Mean
[4] = blockers of CRF-binding protein–CRF-R2 complex – cell-based, uHTS hits, 384-well, dose response (AID 651639); format: functional, Homo sapiens; settings: read-out: IC50_Mean
[5] = biological target: Glyceraldehyde-3-phosphate dehydrogenase (Homo sapiens, UniProt P04406)
[6] = biological target: T4, Alkaline phosphatase, tissue-nonspecific isozyme (Homo sapiens, UniProt P05186); assay: potency against alkaline phosphatase TNAP – biochemical, luminescent, dose response, SAR follow-up (AID 1056)
T4 sequence (P05186 whole entry): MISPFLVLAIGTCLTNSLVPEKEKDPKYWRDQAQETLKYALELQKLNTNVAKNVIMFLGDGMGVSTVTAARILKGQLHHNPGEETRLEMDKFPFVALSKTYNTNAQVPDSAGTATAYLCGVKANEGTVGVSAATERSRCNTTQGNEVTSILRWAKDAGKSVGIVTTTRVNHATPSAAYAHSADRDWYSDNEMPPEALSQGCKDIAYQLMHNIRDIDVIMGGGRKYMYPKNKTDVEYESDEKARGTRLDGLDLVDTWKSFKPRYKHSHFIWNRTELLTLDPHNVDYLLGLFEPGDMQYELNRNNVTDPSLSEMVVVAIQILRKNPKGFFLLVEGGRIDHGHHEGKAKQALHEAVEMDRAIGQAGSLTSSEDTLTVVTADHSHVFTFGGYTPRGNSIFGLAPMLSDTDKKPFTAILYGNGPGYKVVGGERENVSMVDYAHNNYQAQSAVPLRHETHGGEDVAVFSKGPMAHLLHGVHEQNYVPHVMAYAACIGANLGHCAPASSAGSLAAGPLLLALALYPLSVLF

Vero = assay: viability of Vero cells under compound – cytotoxicity control for flavivirus capping enzyme inhibitors (AID 588742); format: functional; settings: Chlorocebus sabaeus
Genome polyprotein = Genome polyprotein (dengue virus type 2, UniProt P29990); assay: flavivirus cap methylation enzyme inhibition – biochemical, confirmation dose response, primary screen (AID 588689); format: functional
[7] = tested on: Streptococcus sp. 'group A'; assay: Streptococcus pyogenes SK(-)GAS viability under kanamycin – luminescence, BacTiterGlo, confirmation, counter-screen for streptokinase expression inhibitor project, dose response (AID 1900); format: functional, organism-based
Streptokinase A = biological target: T5, Streptokinase A (Streptococcus pyogenes serotype M1, UniProt P10520); assay: viability-normalized secreted streptokinase activity reduction – plasminogen activation absorbance, OD405, dose response (AID 1914); format: functional, Streptococcus pyogenes M1 GAS;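 further: secreted streptokinase activity via plasminogen activation per viability signal from cell pellet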
T5 sequence (P10520 whole entry): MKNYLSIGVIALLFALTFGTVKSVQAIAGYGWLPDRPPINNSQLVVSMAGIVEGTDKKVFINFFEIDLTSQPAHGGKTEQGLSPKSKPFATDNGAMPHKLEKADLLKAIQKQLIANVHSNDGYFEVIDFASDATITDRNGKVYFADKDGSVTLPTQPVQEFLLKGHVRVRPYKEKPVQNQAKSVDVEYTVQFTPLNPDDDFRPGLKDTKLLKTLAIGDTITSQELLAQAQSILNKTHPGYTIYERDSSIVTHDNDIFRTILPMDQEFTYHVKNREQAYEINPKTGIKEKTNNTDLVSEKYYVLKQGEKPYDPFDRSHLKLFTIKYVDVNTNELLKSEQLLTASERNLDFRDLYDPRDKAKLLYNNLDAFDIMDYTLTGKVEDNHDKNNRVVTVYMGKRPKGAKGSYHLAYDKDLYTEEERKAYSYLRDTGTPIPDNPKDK

Streptococcus = assay: GAS UMAA2166 growth inhibition – luminescence, BacTiterGlo, counter-screen for streptokinase expression inhibitor project, dose response (AID 1915); format: functional, organism-based;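 further: potency for reduction of bacterial viability or growth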
[8] = biological target: Heat shock protein HSP 90-alpha (Homo sapiens, UniProt P07900); format: functional, organism-based
INS1 = assay: INS-1E survival protection against cytokine death – cell-based, luminescence, retest, dose response (AID 449756); format: functional; settings: Rattus norvegicus;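 further: cell death triggered by IL-1 beta plus TNF-alpha plus IFN-gamma mixture; protective hits raise ATP signal compared with cytokine alone wells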

Cytochrome P450 3A4, sequence (P08684 whole entry): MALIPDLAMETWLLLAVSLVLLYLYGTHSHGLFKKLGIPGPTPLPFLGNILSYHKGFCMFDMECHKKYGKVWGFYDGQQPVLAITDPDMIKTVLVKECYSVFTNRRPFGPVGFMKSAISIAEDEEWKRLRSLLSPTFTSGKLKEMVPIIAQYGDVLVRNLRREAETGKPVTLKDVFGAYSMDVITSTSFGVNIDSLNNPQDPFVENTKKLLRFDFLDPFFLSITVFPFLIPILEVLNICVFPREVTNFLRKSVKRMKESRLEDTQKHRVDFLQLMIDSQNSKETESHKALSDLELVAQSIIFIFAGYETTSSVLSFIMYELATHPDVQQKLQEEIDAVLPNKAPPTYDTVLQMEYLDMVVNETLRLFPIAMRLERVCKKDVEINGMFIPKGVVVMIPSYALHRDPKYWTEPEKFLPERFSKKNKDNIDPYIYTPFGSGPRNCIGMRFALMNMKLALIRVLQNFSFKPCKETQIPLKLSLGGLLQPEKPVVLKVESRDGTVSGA
Genome polyprotein, sequence (P29990 2492-3391 limits assumed): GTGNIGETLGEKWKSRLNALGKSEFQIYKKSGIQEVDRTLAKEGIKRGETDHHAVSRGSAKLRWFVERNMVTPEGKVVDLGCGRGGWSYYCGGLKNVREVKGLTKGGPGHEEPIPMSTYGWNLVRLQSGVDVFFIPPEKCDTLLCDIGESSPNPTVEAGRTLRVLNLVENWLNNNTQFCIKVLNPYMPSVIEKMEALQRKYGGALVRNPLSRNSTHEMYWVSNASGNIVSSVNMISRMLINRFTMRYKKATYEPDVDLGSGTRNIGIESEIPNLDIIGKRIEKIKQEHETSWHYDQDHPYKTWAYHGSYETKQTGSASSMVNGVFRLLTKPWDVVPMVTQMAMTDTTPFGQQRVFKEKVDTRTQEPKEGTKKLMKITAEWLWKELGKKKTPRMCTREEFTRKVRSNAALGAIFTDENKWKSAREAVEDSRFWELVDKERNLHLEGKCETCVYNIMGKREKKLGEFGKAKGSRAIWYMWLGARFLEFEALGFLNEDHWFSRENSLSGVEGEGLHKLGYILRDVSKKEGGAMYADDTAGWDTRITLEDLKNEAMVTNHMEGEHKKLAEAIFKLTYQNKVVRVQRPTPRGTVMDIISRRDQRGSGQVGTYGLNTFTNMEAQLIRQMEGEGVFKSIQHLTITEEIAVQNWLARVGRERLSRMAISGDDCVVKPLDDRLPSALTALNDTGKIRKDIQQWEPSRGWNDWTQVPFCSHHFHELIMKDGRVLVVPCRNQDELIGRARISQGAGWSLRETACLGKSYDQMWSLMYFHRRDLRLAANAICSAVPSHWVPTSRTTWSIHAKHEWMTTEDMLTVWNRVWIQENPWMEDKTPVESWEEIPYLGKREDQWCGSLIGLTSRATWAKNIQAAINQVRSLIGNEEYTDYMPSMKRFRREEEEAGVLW
Glyceraldehyde-3-phosphate dehydrogenase, sequence (P04406 whole entry): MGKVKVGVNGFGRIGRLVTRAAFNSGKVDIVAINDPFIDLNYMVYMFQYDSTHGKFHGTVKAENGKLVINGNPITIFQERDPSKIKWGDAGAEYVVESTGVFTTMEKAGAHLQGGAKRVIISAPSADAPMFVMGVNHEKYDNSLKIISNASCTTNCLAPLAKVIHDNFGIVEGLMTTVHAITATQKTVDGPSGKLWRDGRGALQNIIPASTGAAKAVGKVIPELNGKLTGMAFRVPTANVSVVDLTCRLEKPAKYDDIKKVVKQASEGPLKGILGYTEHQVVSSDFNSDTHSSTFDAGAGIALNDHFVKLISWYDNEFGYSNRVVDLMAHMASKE

With `CN(CC(=O)NCCc1ccccc1)S(=O)(=O)c1ccc(Br)s1` as the compound, how does the IC50 (Protein skinhead-1) read?
The IC50 was > 100 µM (inactive).

For `O=C(Oc1ccccc1)N1CCC2(CCN(Cc3nccs3)CC2)CC1`, which AC50 (Cytochrome P450 3A4) is on record?
Its AC50 is “inconclusive”.

Which AC50 [1] does the source give for `COc1cccc(-c2csc3ncnc(Sc4nnnn4C)c23)c1` here?
Its AC50 is 25 µM (active).

With `C=CCOc1ccc(CNC(C)(C)CO)cc1OC.Cl` as the compound, how does the AC50 (Cytochrome P450 3A4) read?
The AC50 was “inconclusive”.

With `Cc1ccc(-c2ccnc3nc(Sc4ncc(C(F)(F)F)cc4Cl)nn23)cc1` as the compound, how does the IC50 (Protein skinhead-1) read?
The IC50 was > 100 µM (inactive).

Which IC50 [2] does the source give for `Cc1nc2cc(C(=O)NCc3ccc4c(c3)OCO4)ccc2n1-c1ccc(Br)cc1` here?
Its IC50 is < 0.368 µM (active).

What about the EC50 [3] of the same compound?
The EC50 was > 53 µM (inactive).

And the IC50 [4]?
The IC50 was > 20 µM (inactive).

For `O=C1c2c(Cl)c(Cl)c(Cl)c(Cl)c2C(=O)N1c1nnc[nH]1`, which IC50 [5] is on record?
The IC50 was 5.3 µM (active).

What about the IC50 [6] of the same compound?
Its IC50 is > 100 µM (inactive).

For `CCOc1ccc(-n2c(=S)sc3c(O)nc(SCC(=O)C(C)(C)C)nc32)cc1`, which CC50 (Vero) is on record?
The CC50 was > 40 µM (active).

What about the IC50 (Genome polyprotein) of the same compound?
Its IC50 is 54.2 µM (active).

Which results are given for `O=C(c1cccc(S(=O)(=O)N2CCOCC2)c1)N(Cc1ccc(F)cc1)Cc1ccco1`?
IC50 [2]: 10.6 µM (active); EC50 [3]: > 53 µM (inactive); IC50 [4]: > 20 µM (inactive)

With `O=C(/C=C/c1cccc([N+](=O)[O-])c1)c1ccc([N+](=O)[O-])o1` as the compound, how does the EC50 [7] read?
Its EC50 is 2.33 µM (active).

And the EC50 (Streptokinase A)?
The EC50 was > 150 µM (not active).

What about the EC50 (Streptococcus) of the same compound?
The EC50 was 8.2 µM (active).

What about the AC50 [8] of the same compound?
The AC50 was 0.557 µM (active).

And the CC50 (Vero)?
Its CC50 is 30.7 µM (active).

And the AC50 (INS1)?
Its AC50 is 2.18 µM (active).
